Assay results from patent US20230212131A1, “COLLAGEN 1 TRANSLATION INHIBITORS AND METHODS OF USE THEREOF” (Anima Biotech Inc., priority 2020, published 2023).

Test system: collagen 1 (COL1)
Test: WI-38 collagen 1 inhibition assay
Format: cell-based, human
Conditions: Cellular EC50, WI-38 cells; values are classes of LogEC50
In short: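 WI-38 fibroblasts serum-starved (0.25% FBS 2 h, then none 24 h), then given a collagen induction cocktail together with compound. Cells fixed, immunostained for collagen I with DAPI counterstain, and imaged at 20×; per-cell fluorescence quantified by image analysis.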

| SMILES | COL1 Efficacy (LogEC50) |
| --- | --- |
| COc1cnc(C(=O)Nc2nc(-c3ccccc3Cl)cs2)cn1 [compound 330, N-[4-(2-chlorophenyl)thiazol-2-yl]-5-methoxy-pyrazine-2-carboxamide] | ++ (++: −5 to −6) |
| O=C(Nc1nc(-c2ccccc2Cl)cs1)c1ccc(C(=O)N2CCNCC2)cn1 [compound 451, N-(4-(2-chlorophenyl)thiazol-2-yl)-5-(piperazine-1-carbonyl)picolinamide] | ++ (++: −5 to −6) |
| O=C(Nc1nc(-c2ccccc2Cl)cs1)c1ccc(N2CCOCC2)cc1F [compound 408] | − (−: inactive) |
| COCc1ccccc1-c1csc(NC(=O)c2ccc(N3CCC(O)CC3)cn2)n1 [Compound 468, 5-(4-hydroxypiperidin-1-yl)-N-(4-(2-(methoxymethyl)phenyl)thiazol-2-yl)picolinamide] | +++ (+++: <−6) |
| C[C@H]1COCCN1c1ccc(C(=O)Nc2nc(-c3ccccc3Cl)cs2)nc1 [compound 464, (S)—N-(4-(2-chlorophenyl)thiazol-2-yl)-5-(3-methylmorpholino)picolinamide] | +++ (+++: <−6) |
| Cc1ccc(C(=O)Nc2nc(-c3cnccc3C)cs2)cn1 [compound 348, 6-methyl-N-[4-(4-methyl-3-pyridyl)thiazol-2-yl]pyridine-3-carboxamide] | + (+: >−5) |
| CS(=O)(=O)N1CCN([C@H]2C[C@@H](C(=O)Nc3nc(-c4ccccc4Cl)cs3)C2)CC1 [compound 423] | − (−: inactive) |
| O=C(Nc1nc(-c2ccccc2Cl)cs1)c1ccc(C2CCS(=O)(=O)CC2)cc1 [compound 382, N-(4-(2-chlorophenyl)thiazol-2-yl)-4-(1,1-dioxidotetrahydro-2H-thiopyran-4-yl)benzamide] | +++ (+++: <−6) |
| CC(=O)N1CCN(c2cc(C)c(C(=O)Nc3nc(-c4ccccc4Cl)cs3)c(C)c2)CC1 [compound 474] | − (−: inactive) |
| Cc1ccc(C(=O)Nc2nc(-c3ccccc3N3CCC3)cs2)cn1 [compound 350, N-[4-[2-(azetidin-1-yl)phenyl]thiazol-2-yl]-6-methyl-pyridine-3-carboxamide] | − (−: inactive) |
| COc1cc(OC)cc(-c2csc(NC(=O)c3ccc(N4CCOCC4)cc3)n2)c1 [compound 353, N-[4-(3,5-dimethoxyphenyl)thiazol-2-yl]-4-morpholino-benzamide] | +++ (+++: <−6) |
| O=C(Nc1nc(-c2ccc(Cl)cc2Cl)cs1)c1ccc(Cl)cc1 [Compound 303, 4-chloro-N-(4-(2,4-dichlorophenyl)thiazol-2-yl)benzamide] | + (+: >−5) |
| CS(=O)(=O)N1CCN(C23CC(C(=O)Nc4nc(-c5ccccc5Cl)cs4)(C2)C3)CC1 [Compound 418, N-(4-(2-chlorophenyl)thiazol-2-yl)-3-(4-(methylsulfonyl)piperazin-1-yl)bicyclo[1.1.1]pentane-1-carboxamide] | ++ (++: −5 to −6) |
| O=C(Nc1nc(-c2ccccc2Cl)cs1)c1ccc(C(=O)N2CCS(=O)(=O)CC2)cc1 [compound 385, N-(4-(2-chlorophenyl)thiazol-2-yl)-4-(1,1-dioxidothiomorpholine-4-carbonyl)benzamide] | ++ (++: −5 to −6) |
| COc1ncc(C(=O)Nc2nc(-c3cnccc3C)cs2)cn1 [compound 349, 2-methoxy-N-[4-(4-methyl-3-pyridyl)thiazol-2-yl]pyrimidine-5-carboxamide] | − (−: inactive) |
| COCCN1CCN(c2ccc(C(=O)Nc3nc(-c4ccccc4Cl)cs3)cc2)CC1 [Compound 377, N-(4-(2-chlorophenyl)thiazol-2-yl)-4-(4-(2-methoxyethyl)piperazin-1-yl)benzamide] | +++ (+++: <−6) |
| CC(=O)N1CCC(Oc2ccc(C(=O)Nc3nc(-c4ccccc4Cl)cs3)nc2)CC1 [compound 440, 5-((1-acetylpiperidin-4-yl)oxy)-N-(4-(2-chlorophenyl)thiazol-2-yl)picolinamide] | +++ (+++: <−6) |
| O=C(Nc1nc(-c2ccccc2Cl)cs1)C1CC(N2CCOCC2)C1 (centres unmarked) [Compound 421, (1s,3s)-N-(4-(2-chlorophenyl)thiazol-2-yl)-3-morpholinocyclobutane-1-carboxamide] | + (+: >−5) |
| COc1ccc(C(=O)Nc2nc(-c3cccnc3)cs2)cc1 [Compound 316, 4-methoxy-N-[4-(3-pyridyl)thiazol-2-yl]benzamide] | ++ (++: −5 to −6) |

| SMILES | COL1 Efficacy (LogEC50) |
| --- | --- |
| O=C(Nc1nc(-c2ccc(Cl)cc2Cl)cs1)C1CCOCC1 [Compound 306, N-(4-(2,4-dichlorophenyl)thiazol-2-yl)tetrahydro-2H-pyran-4-carboxamide] | ++ (++: −5 to −6) |
| Cc1ncccc1-c1csc(NC(=O)c2cnc(N3CCOCC3)nc2)n1 [compound 374, N-[4-(2-methyl-3-pyridyl)thiazol-2-yl]-2-morpholino-pyrimidine-5-carboxamide] | + (+: >−5) |
| CN1CCC(C(=O)N2CCN(c3ccc(C(=O)Nc4nc(-c5ccccc5Cl)cs4)nc3)CC2)C1 (centres unmarked) [Compound 482, N-(4-(2-chlorophenyl)thiazol-2-yl)-5-(4-(1-methylpyrrolidine-3-carbonyl)piperazin-1-yl)picolinamide] | +++ (+++: <−6) |
| Cc1ccc(C(=O)Nc2nc(-c3cc(Cl)sc3Cl)cs2)cc1 [compound 313] | +++ (+++: <−6) |
| O=C(Nc1nc(-c2cc(Cl)sc2Cl)cs1)c1ccccc1 [compound 312] | ++ (++: −5 to −6) |
| COCC(=O)N1CC2(C1)CN(c1ccc(C(=O)Nc3nc(-c4ccccc4Cl)cs3)nc1)C2 [Compound 450, N-(4-(2-chlorophenyl)thiazol-2-yl)-5-(6-(2-methoxyacetyl)-2,6-diazaspiro[3.3]heptan-2-yl)picolinamide] | +++ (+++: <−6) |
| CN1CC2(C1)CN(c1ccc(C(=O)Nc3nc(-c4ccccc4Cl)cs3)nc1)C2 [compound 459] | − (−: inactive) |
| CS(=O)(=O)N1CCN(c2ccc(C(=O)Nc3nc(-c4ccccc4Cl)cs3)cc2)CC1 [compound 365, N-[4-(2-chlorophenyl)thiazol-2-yl]-4-(4-methylsulfonylpiperazin-1-yl)benzamide] | +++ (+++: <−6) |
| COc1ccc(C(=O)Nc2nc(-c3cc(C)cc(C)c3)cs2)cc1 [Compound 305, N-(4-(3,5-dimethylphenyl)thiazol-2-yl)-4-methoxybenzamide] | ++ (++: −5 to −6) |
| O=C(Nc1nc(-c2ccccc2Cl)cs1)c1ccc(N2CCN3CCCC3C2)cn1 (centres unmarked) [compound 461, N-(4-(2-chlorophenyl)thiazol-2-yl)-5-(hexahydropyrrolo[1,2-a]pyrazin-2(1H)-yl)picolinamide] | +++ (+++: <−6) |
| Cc1ncccc1-c1csc(NC(=O)c2ccc(N3CCOCC3)nn2)n1 [compound 373, N-[4-(2-methyl-3-pyridyl)thiazol-2-yl]-6-morpholino-pyridazine-3-carboxamide] | + (+: >−5) |
| COCc1cc(N2CCOCC2)ccc1C(=O)Nc1nc(-c2ccccc2Cl)cs1 [compound 436] | − (−: inactive) |
| CS(=O)(=O)N1CCC(Oc2ccc(C(=O)Nc3nc(-c4ccccc4Cl)cs3)nc2)CC1 [compound 438, N-(4-(2-chlorophenyl)thiazol-2-yl)-5-((1-(methylsulfonyl)piperidin-4-yl)oxy)picolinamide] | +++ (+++: <−6) |
| Cc1ccc(C(=O)Nc2nc(-c3cncnc3C)cs2)cn1 [Compound 347, 6-methyl-N-[4-(4-methylpyrimidin-5-yl)thiazol-2-yl]pyridine-3-carboxamide] | ++ (++: −5 to −6) |
| COc1ccc(C(=O)Nc2nc(-c3ccc(F)cc3Cl)cs2)cc1 [Compound 321, N-[4-(2-chloro-4-fluoro-phenyl)thiazol-2-yl]-4-methoxy-benzamide] | +++ (+++: <−6) |
| O=C(Nc1nc(-c2ccccc2Cl)cs1)c1ccc(C2CCOCC2)cc1 [Compound 380, N-(4-(2-chlorophenyl)thiazol-2-yl)-4-(tetrahydro-2H-pyran-4-yl)benzamide] | +++ (+++: <−6) |
| O=C(Nc1nc(-c2ccccc2Cl)cs1)C1CCC(N2CCOCC2)CC1 (centres unmarked) [compound 431] | − (−: inactive) |
| CN(C)Cc1ccccc1-c1csc(NC(=O)c2ccc(N3CCN(S(C)(=O)=O)CC3)cn2)n1 [Compound 460, N-(4-(2-((dimethylamino)methyl)phenyl)thiazol-2-yl)-5-(4-(methylsulfonyl)piperazin-1-yl)picolinamide hemiformate] | ++ (++: −5 to −6) |
| O=C(Nc1nc(-c2ccc(Cl)cc2Cl)cs1)c1ccccc1 [Compound 302, N-(4-(2,4-dichlorophenyl)thiazol-2-yl)benzamide] | ++ (++: −5 to −6) |
